Reference: patent US20260083851A1 (AVILAR THERAPEUTICS, INC., priority 2022, published 2026)
Read-outs that look alike come from different tables or passages of the source. Positions of bridges follow the written chain, without caps; N, C: chain ends. Non-standard residues stand in square brackets, D forms with d. Residues, ends and D or L forms follow the SMILES beside them. ξ: configuration not given here. ξPro(4-NH2) = NC1CNC(C(=O)O)C1

Key:
[1] = target: T1, ASGP receptor (biotinylated ASGPR) (Homo sapiens, UniProt P07306); format: binding; settings: SPR
T1 construct: biotin (biotinylated)
T1 sequence (P07306 1-291): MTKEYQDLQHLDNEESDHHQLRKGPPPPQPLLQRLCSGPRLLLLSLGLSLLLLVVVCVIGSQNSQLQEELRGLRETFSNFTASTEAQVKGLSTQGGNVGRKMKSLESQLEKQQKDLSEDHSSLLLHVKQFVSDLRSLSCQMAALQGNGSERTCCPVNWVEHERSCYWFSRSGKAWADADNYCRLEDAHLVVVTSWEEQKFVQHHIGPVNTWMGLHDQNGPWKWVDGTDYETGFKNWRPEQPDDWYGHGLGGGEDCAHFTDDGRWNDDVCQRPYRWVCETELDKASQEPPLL

[2] = target: IgG; experiment: IgG SPR binding; settings: second table, read-out: IgG KD
[3] = Biacore 8K, 25° C., Table 1D, read-out: ASGPR KD
[4] = Biacore 8K, 25° C., Table 1E, read-out: ASGPR KD
[5] = Biacore 8K, 25° C., Table 1E, numeric bound, read-out: ASGPR KD
[6] = Table 2, read-out: ASGPR SPR Binding KD

SMILES	Kd [1, 3] [µM]	Kd [1, 4] [µM]	also measured
COC(=O)c1ccc(-c2ccc(C(=O)N3C[C@H](Nc4cncc(C(F)(F)F)n4)[C@@H](O)[C@@H](O)C3)cc2)cc1 [A391]	< 10		
O=C(O)c1ccc(C(=O)N2C[C@H](Nc3cncc(C(F)(F)F)n3)[C@@H](O)[C@@H](O)C2)nc1 [A392]	< 10		
O[C@@H]1[C@@H](Nc2cncc(C(F)(F)F)n2)CN(c2ccccc2)C[C@@H]1O [A393]	< 10		
OCC1CCN(c2ccc(N3C[C@H](Nc4cncc(C(F)(F)F)n4)[C@@H](O)[C@@H](O)C3)nn2)CC1 [A394]	< 10		
O[C@@H]1[C@@H](Nc2cncc(C(F)(F)F)n2)CN(c2cccnn2)C[C@@H]1O [A395]	< 10		
O[C@@H]1[C@@H](Nc2cccc(C(F)(F)F)n2)CN(C2CCNCC2)C[C@@H]1O [A396]	< 10		
CC(C)(C)OC(=O)N1CCC(N2C[C@H](Nc3cccc(C(F)(F)F)n3)[C@@H](O)[C@@H](O)C2)CC1 [A397]	< 10		
O[C@@H]1[C@@H](Nc2ncnn3cccc23)CNC[C@@H]1O [A400]			Kd ([1]; Biacore 8K, 25° C., Table 1D, numeric bound, read-out: ASGPR KD): > 30 µM
O=C(O)C1CCN(c2ccc(N3C[C@H](Nc4cncc(C(F)(F)F)n4)[C@@H](O)[C@@H](O)C3)nc2)CC1 [A401]	< 10		
C#CCOc1nc(N[C@H]2CO[C@H](CO)[C@H](O)[C@@H]2O)cc(C(F)(F)F)n1 [A402]	10 to 100		
CN1C[C@H](Oc2cccc(C(F)(F)F)n2)[C@@H](O)[C@@H](O)C1 [A403]	10 to 100		
O=C(CCCCC(=O)N1C[C@H](Nc2cncc(C(F)(F)F)n2)[C@@H](O)[C@@H](O)C1)OCc1ccccc1 [A404]	< 10		
CC(=O)N[C@H]1CN(C(=O)CCCCC(=O)OCc2ccccc2)C[C@H](O)[C@@H]1O [A407]	10 to 100		
O=C(O)CCCCC(=O)N1C[C@H](Nc2cncc(C(F)(F)F)n2)[C@@H](O)[C@@H](O)C1 [A408]	< 10		
O=C(OCc1ccccc1)N1CCC(c2cnc(OC[C@H]3OC[C@H](Nc4cncc(C(F)(F)F)n4)[C@@H](O)[C@H]3O)cn2)CC1 [A409]	< 10		
O=C(OCc1ccccc1)N1CC(c2ccc(OC[C@H]3OC[C@H](Nc4cncc(C(F)(F)F)n4)[C@@H](O)[C@H]3O)nn2)C1 [A410]	< 10		
O=C(OCc1ccccc1)N1CCC(N2C[C@H](Nc3cccc(C(F)(F)F)n3)[C@@H](O)[C@@H](O)C2)C(F)(F)C1 (some centres unmarked) [A412]	< 10		
O[C@@H]1[C@H](O)[C@@H](Nc2cncc(C(F)(F)F)n2)CO[C@@H]1COc1cnc(C2CCNCC2)cn1 [A415]	< 10		
O[C@@H]1[C@H](O)[C@@H](Nc2cncc(C(F)(F)F)n2)CO[C@@H]1COc1ccc(C2CCNCC2)nn1 [A416]	< 10		
O[C@@H]1[C@H](O)[C@@H](Oc2cncc(C(F)(F)F)n2)CO[C@@H]1COc1ncccn1 [A417]	< 10		

SMILES	Kd [1, 3] [µM]	Kd [1, 4] [µM]	also measured
Nc1ccc(OC[C@H]2OC[C@H](Nc3cncc(C(F)(F)F)n3)[C@@H](O)[C@H]2O)nn1 [A418]	< 10		
O[C@@H]1[C@H](O)[C@@H](Nc2cncc(C(F)(F)F)n2)CO[C@@H]1COc1ccc(C2CNC2)nn1 [A420]	< 10		
O[C@@H]1[C@H](O)[C@@H](Oc2cncc(C(F)(F)F)n2)CO[C@@H]1COc1cnccn1 [A421]	< 10		
O=C(c1ccccc1)N1C[C@H](Nc2cncc(C(F)(F)F)n2)[C@@H](O)[C@@H](O)C1 [A422]	< 10		
O=C(c1ccccn1)N1C[C@H](Nc2cncc(C(F)(F)F)n2)[C@@H](O)[C@@H](O)C1 [A423]	< 10		
C[C@H]1O[C@H](C(=O)Nc2cn[nH]c2)[C@H](Nc2cccc(C(F)(F)F)n2)[C@@H](O)[C@H]1O [A424]	< 10		
O[C@@H]1[C@@H](Oc2cccc(C(F)(F)F)n2)CN(c2cnccn2)C[C@@H]1O [A425]	< 10		
O[C@@H]1[C@@H](Oc2cccc(C(F)(F)F)n2)CN(c2ccc(C(F)(F)F)cn2)C[C@@H]1O [A427]	< 10		
C[C@H]1O[C@H](C(N)=O)[C@H](Oc2cccc(C(F)(F)F)n2)[C@@H](O)[C@H]1O [A431]		< 10	
C[C@H]1O[C@H](C#N)[C@H](Oc2cccc(C(F)(F)F)n2)[C@@H](O)[C@H]1O [A432]		< 10	
C[C@H]1O[C@H](C(C)(C)O)[C@H](Oc2cccc(C(F)(F)F)n2)[C@@H](O)[C@H]1O [A433]		< 10	
C[C@H]1O[C@H](COc2cnccn2)[C@H](Oc2cncc(C(F)(F)F)n2)[C@@H](O)[C@H]1O [A434]		< 10	
C[C@H]1O[C@H](C2=CC3C(C2=O)[C@@H]2CC[C@H]3C2)[C@H](Oc2cccc(C(F)(F)F)n2)[C@@H](O)[C@H]1O (some centres unmarked) [A435A]		< 10	
C[C@H]1O[C@H](C2=CC3C(C2=O)[C@H]2CC[C@@H]3C2)[C@H](Oc2cccc(C(F)(F)F)n2)[C@@H](O)[C@H]1O (some centres unmarked) [A435B]		< 10	
C[C@H]1O[C@H](C2=CC3C4CCC(C4)C3C2=O)[C@H](Oc2cccc(C(F)(F)F)n2)[C@@H](O)[C@H]1O (some centres unmarked) [A435]		< 10	
C[C@H]1O[C@H](CO)[C@H](Oc2cncc(C(F)(F)F)n2)[C@@H](O)[C@H]1O [A436]			Kd [1, 5]: > 30 µM
C[C@H]1O[C@H](CO)[C@H](Oc2nccc(C(F)(F)F)n2)[C@@H](O)[C@H]1O [A437]		10 to 100	
C[C@H]1O[C@H](CO)[C@H](Oc2cccc(C(F)(F)F)n2)[C@@H](O)[C@H]1O [A438]		< 10	
C[C@H]1O[C@H](CCc2ccncc2)[C@H](Oc2cccc(C(F)(F)F)n2)[C@@H](O)[C@H]1O [A439]		< 10	
C[C@H]1O[C@H](C(=O)NCCOCCOCC(=O)O)[C@H](Oc2cccc(C(F)(F)F)n2)[C@@H](O)[C@H]1O [A440]			Kd [1, 5]: > 30 µM

SMILES	Kd [1, 3] [µM]	Kd [1, 4] [µM]	also measured
C[C@H]1O[C@H](COc2cccnn2)[C@H](Oc2cccc(C(F)(F)F)n2)[C@@H](O)[C@H]1O [A441]		< 10	
C#Cc1ccc(OC[C@H]2O[C@H](C)[C@H](O)[C@H](O)[C@H]2Oc2cccc(C(F)(F)F)n2)nn1 [A442]		< 10	
C[C@H]1O[C@H](COc2cnc(C(=O)O)cn2)[C@H](Oc2cccc(C(F)(F)F)n2)[C@@H](O)[C@H]1O [A443]		< 10	
C[C@H]1O[C@H](COc2ccc(C(=O)O)nn2)[C@H](Oc2cccc(C(F)(F)F)n2)[C@@H](O)[C@H]1O [A444]		< 10	
C[C@H]1O[C@H](COc2cccc(C(F)(F)F)n2)[C@H](O)[C@@H](O)[C@H]1O [A445]		10 to 100	
C[C@H]1O[C@H](COc2ccncn2)[C@H](Oc2cccc(C(F)(F)F)n2)[C@@H](O)[C@H]1O [A446]		< 10	
C[C@H]1O[C@H](COc2ncccn2)[C@H](Oc2cccc(C(F)(F)F)n2)[C@@H](O)[C@H]1O [A447]		< 10	
C[C@H]1O[C@H](c2nnc(-c3ccccc3)o2)[C@H](Oc2cccc(C(F)(F)F)n2)[C@@H](O)[C@H]1O [A448]		< 10	
C[C@H]1O[C@H](COc2cnccn2)[C@H](Oc2cccc(C(F)(F)F)n2)[C@@H](O)[C@H]1O [A449]		< 10	
C[C@H]1O[C@H](COc2cccc(C(F)(F)F)n2)[C@H](Oc2cnccn2)[C@@H](O)[C@H]1O [A450]		< 10	
C[C@H]1O[C@H](c2nc(-c3ccccc3)no2)[C@H](Oc2cccc(C(F)(F)F)n2)[C@@H](O)[C@H]1O [A451]		< 10	
O=C(O)c1cnc(OC[C@@]23CO[C@@H](O2)[C@H](Nc2cncc(C(F)(F)F)n2)[C@@H](O)[C@H]3O)cn1 [A452]		< 10	
O[C@@H]1[C@@H](Oc2cccc(C(F)(F)F)n2)CN(c2ccncn2)C[C@@H]1O [Compound A248]	< 10		
O[C@@H]1[C@H](O)[C@@H](Oc2cccc(C(F)(F)F)n2)CO[C@@H]1CN1CCN(c2cnccn2)CC1 [Compound A248]			Kd ([1]; Biacore 8K, 25° C., Table 1C, read-out: ASGPR KD): < 10 µM
CC1(C)C(=O)c2ccc(-c3cnc(N4CCN5C(=O)N(CCOCCOCCOCC(=O)NC(COCCC(=O)NCCOCCOCCOCCOC[C@H]6OC[C@H](Nc7cncc(C(F)(F)F)n7)[C@@H](O)[C@H]6O)COCCC(=O)NCCOCCOCCOCCOC[C@H]6OC[C@H](Nc7cncc(C(F)(F)F)n7)[C@@H](O)[C@H]6O)C[C@@H]5C4)nc3)nc2N1Cc1cccnc1C#N [compound 19]			Kd [1, 6]: < 0.1 µM
CC1(C)C(=O)c2ccc(-c3cnc(N4CCN5C(=O)N(CCCNC(=O)c6ccc7c(c6)C(F)(F)c6cc(C(=O)NC[C@H]8OC[C@H](Nc9cncc(C(F)(F)F)n9)[C@@H](O)[C@H]8O)ccc6-7)C[C@@H]5C4)nc3)nc2N1Cc1cccnc1C#N [compound 20]			Kd [1, 6]: < 0.1 µM
O=C(CCOCC(COCCC(=O)NC[C@H]1OC[C@H](Nc2cncc(C(F)(F)F)n2)[C@@H](O)[C@H]1O)NCC(=O)N1CCN(Cc2ccc(-c3c[nH]c4ccncc34)c(OCCc3ccc(-c4cccc5ccncc45)cc3)c2)CC1)NC[C@H]1OC[C@H](Nc2cncc(C(F)(F)F)n2)[C@@H](O)[C@H]1O [compound 21]			Kd [1, 6]: < 0.1 µM
CC1(C)C(=O)c2ccc(-c3cnc(N4CCN5C(=O)N(CCOCCOCCOCC(=O)NC(COCCC(=O)NCCOCCOCCOCCOC[C@H]6OC[C@H](Nc7nccc(C(F)(F)F)n7)[C@@H](O)[C@H]6O)COCCC(=O)NCCOCCOCCOCCOC[C@H]6OC[C@H](Nc7nccc(C(F)(F)F)n7)[C@@H](O)[C@H]6O)C[C@@H]5C4)nc3)nc2N1Cc1cccnc1C#N [compound 22]			Kd [1, 6]: < 0.1 µM
CC(C)CC1NC(=O)C(Cc2cnc[nH]2)NC(=O)C(Cc2c[nH]c3ccccc23)NC(=O)C(C)NC(=O)C2CSSCC(NC(=O)C(Cc3c[nH]c4ccccc34)NC(=O)C(C(C)C)NC(=O)C(CC(C)C)NC(=O)C(CCC(=O)O)NC(=O)CNC1=O)C(=O)NC(C(C)O)C(=O)N1CCCC1C(=O)N1CC(N)CC1C(=O)NC(C)C(=O)N2 (centres unmarked) [compound 54] (cyclo(GELVWCTP[ξPro(4-NH2)]ACAWHL); disulfide 6-11; configuration not given here)			Kd [2]: < 0.1 µM
